The record followed here is ChEMBL document CHEMBL1221387, “Prenylflavonoids from Glycyrrhiza uralensis and their protein tyrosine phosphatase-1B inhibitory activities” (Bioorg Med Chem Lett, 2010).

The source made the active and inactive calls. The calls are words filed in the database; no cut-off is given here.

The target of the assay is T1, Tyrosine-protein phosphatase non-receptor type 1 (Homo sapiens) (UniProt P18031).
T1 sequence (whole entry): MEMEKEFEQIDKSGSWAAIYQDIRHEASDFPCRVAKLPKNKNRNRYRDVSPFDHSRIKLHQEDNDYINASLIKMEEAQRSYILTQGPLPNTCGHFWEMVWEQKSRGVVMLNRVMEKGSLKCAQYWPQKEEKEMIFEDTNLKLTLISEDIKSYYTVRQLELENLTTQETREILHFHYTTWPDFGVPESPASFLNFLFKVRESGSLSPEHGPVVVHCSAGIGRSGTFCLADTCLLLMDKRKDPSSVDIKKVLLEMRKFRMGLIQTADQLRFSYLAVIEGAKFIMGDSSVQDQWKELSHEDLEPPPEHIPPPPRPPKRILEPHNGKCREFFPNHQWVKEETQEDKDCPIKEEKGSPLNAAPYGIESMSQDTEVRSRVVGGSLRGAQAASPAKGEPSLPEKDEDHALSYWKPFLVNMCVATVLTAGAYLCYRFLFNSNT
Nature of the assay: Mixed type inhibition of human recombinant PTP1B at 30 uM by Lineweaver-Burke plot analysis.

With `COc1cc(O)cc2occ(-c3cc(O)c(O)c(CC=C(C)C)c3)c(=O)c12`, the inhibition result is “Active”.
